Data set [1] deals with HCT-116 colorectal cancer cell. The experiment in a line: MTT cell growth inhibition assay, HCT-116 colorectal cancer cells. The settings on record: Homo sapiens, HCT-116; MTT; mean ± SD of three experiments. The format is cell-based, human. From the text: (§1) Initially, we designed and synthesised seven compounds—9a and 12a1–12a6—and evaluated the anticancer activity and aqueous solubility. We evaluated the cytotoxic effects of these stilbene nitrile analogues against a panel of four human cancer cell lines (HCT-116, BEL-7402, MCF-7 and AGS) and two human non-cancerous normal cell lines (L-02 and MCF-10A), using CA-4 as a control. The compounds were screened for aqueous solubility in 0.01 M PBS using a high throughput UV method. […] It is possible that the size of the nitrogen heterocycle had little effect on the activity of these compounds. […] The aqueous solubility of all the compounds 12a1–12a6 was higher than that of 9a, particularly that of 12a1 and 12a2 containing piperazine rings. […] Of the six compounds with improved aqueous solubility, 12a1 had the best activity.
(§2) All human cell lines were used in this study. AGS gastric cancer cell, BEL-7402 liver cancer cell, HCT-116 colorectal cancer cell, L-02 normal liver cell, MCF-7 breast cancer cell, and MCF-10A normal breast cell were initially purchased from American Type Culture Collection (ATCC, Manassas, VA, USA). RPMI-1640 media, DMEM and FBS, were provided by Gibco Company. The cells were maintained in DMEM or RPMI-1640, supplemented with 10% FBS, 100 IU/mL penicillin and […] streptomycin, and at 37 °C in a humidified atmosphere containing 5% CO2.
(§3) The experiment was carried out according to the method of reference.

Data set [2] deals with BEL-7402 liver cancer cell. The data set can be described thus: MTT cell growth inhibition assay, BEL-7402 liver cancer cells. The data set is classed as cell-based. The settings on record: Homo sapiens, mean ± SD of three experiments, read-out: IC50 BEL-7402 Hepatoma Cells.
Excerpt: as §1, §2, §3

A short description of data set [3]: Aqueous solubility in 0.01 M PBS, high throughput UV method. The data set is classed as physicochemical. As to conditions: aqueous phosphate buffer, aqueous buffer; sodium phosphate buffer 0.01 M, pH 7.4, 22 ± 2 °C; mean ± SD.
Excerpt: as §1
The aqueous solubility was determined as a previously reported procedure. Put simply, a certain amount of powdered compound was placed in a 2 mL centrifuge tube and mixed with an appropriate volume of aqueous phosphate buffer (10 mM, pH 7.4) to make the whole system supersaturated. The mixtures were sonicated (KQ5200DE numerical control ultrasonic cleaner, Kunshan Ultrasonic Instrument Co., Ltd., SuZhou, China) for 20 min. After sonication, the mixture was allowed to equilibrate at RT (22 ± 2 °C) for 1.5 h with vortex shaking (1200 rpm). Then centrifuged at 3000 rpm for 15 min (1-14k, sigma, Darmstadt, Germany), the supernatant was filtered with a 0.22 µM filter membrane. And then, take 150 µL of filtrate and add it to 96-well UV plate with triplicate. Draw 150 μL of blank solution was added into plate as blank control. The 96-well UV plate prepared above was read on a Synergy HTX Multifunctional Microplate Reader (BioTek, Vermont, USA) at 294 nm. The absorbance of the sample was corrected according to the UV response of the sample and blank solution, and the corrected UV response values were used for solubility calculations by bringing into the standard curve of the compound. […]
1.5. Solubility Assessment
The aqueous solubility was determined as previously reported using the high throughput solubility screens procedure published by Bruno Bard et al [9. 10]. Put simply, a certain amount of powdered compound was placed in a 2 ml centrifuge tube and mixed with an appropriate volume of aqueous phosphate buffer (0.01 M, pH 7.4) to make the whole system supersaturated. The mixtures were sonicated (KQ5200DE numerical control ultrasonic cleaner, Kunshan Ultrasonic Instrument Co., Ltd., China) for 20 min. After sonication, the mixture was allowed to equilibrate at room temperature (22 ± 2°C) for 1.5 h with vortex shaking (1200 rpm). Then the centrifuge tube was put into the centrifuge (1-14k, sigma, Germany), centrifuged with 3000 rpm for 15 minutes, 0.22 µM filter membrane filtration supernatant, then take 150 µl filtrate and add it to 96-well UV plate, with three well for each compound. Draw 150 μL blank solution were added into 96 well-plate as blank control. The 96-well UV […]
plate prepared above was read on a SynergyHTX Multifunctional microplate reader (BioTek, USA) at 338 nm (compounds 12a-12d and 15-20) or 370 nm (compounds 9a-d). The absorbance of the sample was corrected according to the UV response of the sample and blank solution, and the corrected UV responses value were used for solubility calculations by bring into the standard curve of the compound. […]

Results on one compound are retold here after paper PMC9963121, “Development of Combretastatin A-4 Analogues as Potential Anticancer Agents with Improved Aqueous Solubility” (Molecules, 2023).

Turning to `COc1cc(/C(C#N)=C/c2ccc(NC(=O)CN3CCN(C)CC3)cc2)cc(OC)c1OC` [12a1], the IC50 is 2.44 ± 0.29 µM in data set [1] and 6.36 ± 0.61 µM in data set [2]. Moreover, the thermodynamic solubility at 1.5 h in data set [3] stood at 18.2 ± 0.619 mg/mL.

In general, IC50 refers to the concentration needed to halve the response being measured. A word on the thermodynamic solubility: it is solubility found after equilibrating the solid with the medium.
